Laboratory results taken from PubChem BioAssay (NCI).
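Growth conditions: 96-well plates. Treatment: test compound, 48 hours, 5 concentrations. Analysis: linear interpolation between bracketing concentrations; unreached endpoints set to highest concentration. TGI: concentration producing complete growth inhibition.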

Assays:
Experiment in all cases: NCI anticancer screen, dose series, 48 h
[1] = tested on: 786-0 renal
[2] = tested on: A498 renal
[3] = tested on: A549 NSCLC
[4] = tested on: ACHN renal
[5] = tested on: CAKI-1 renal
[6] = tested on: CCRF-CEM leukemia
[7] = tested on: COLO 205 colon
[8] = tested on: DLD-1 colon
[9] = tested on: DMS 114 small cell lung
[10] = tested on: DMS 273 small cell lung
[11] = tested on: EKVX NSCLC
[12] = tested on: HCC-2998 colon
[13] = tested on: HCT-116 colon
[14] = tested on: HCT-15 colon
[15] = tested on: HL-60(TB) leukemia
[16] = tested on: HOP-18 NSCLC
[17] = tested on: HOP-62 NSCLC
[18] = tested on: HT29 colon
[19] = tested on: IGROV1 ovarian
[20] = tested on: K-562 leukemia
[21] = tested on: KM12 colon
[22] = tested on: KM20L2 colon
[23] = tested on: LOX IMVI melanoma
[24] = tested on: LXFL 529 NSCLC
[25] = tested on: M14 melanoma
[26] = tested on: M19-MEL melanoma
[27] = tested on: MALME-3M melanoma
[28] = tested on: MOLT-4 leukemia
[29] = tested on: NCI-H226 lung
[30] = tested on: NCI-H23 lung
[31] = tested on: NCI-H460 lung
[32] = tested on: NCI-H522 lung
[33] = tested on: OVCAR-3 ovarian
[34] = tested on: OVCAR-4 ovarian
[35] = tested on: OVCAR-5 ovarian
[36] = tested on: OVCAR-8 ovarian
[37] = tested on: RPMI-8226 leukemia
[38] = tested on: RXF 393 renal
[39] = tested on: RXF-631 renal
[40] = tested on: SF-268 CNS
[41] = tested on: SF-295 CNS
[42] = tested on: SF-539 CNS
[43] = tested on: SK-MEL-2 melanoma
[44] = tested on: SK-MEL-28 melanoma
[45] = tested on: SK-MEL-5 melanoma
[46] = tested on: SK-OV-3 ovarian
[47] = tested on: SN12C renal
[48] = tested on: SNB-19 CNS
[49] = tested on: SNB-75 CNS
[50] = tested on: SNB-78 CNS
[51] = tested on: SR leukemia
[52] = tested on: SW-620 colon
[53] = tested on: TK-10 renal
[54] = tested on: U251 CNS
[55] = tested on: UACC-257 melanoma
[56] = tested on: UACC-62 melanoma
[57] = tested on: UO-31 renal

Measured: TGI

N#CCCN(CCC#N)c1ccc(/C=C(/NC(=O)c2cc([N+](=O)[O-])ccc2Cl)C(=O)N=[N+]=[N-])cc1
> 100 µM: all assays above
